Data from patent publication USRE47689E1, “Compounds for treating spinal muscular atrophy” (PTC Therapeutics, Inc., priority 2011, dated 2019).
Like-named read-outs stand apart in the source and are kept apart here.

Columns and labels:
Smn protein = Smn protein assay in cultured cells (SMN HTRF); assay type: cell-based, human; conditions: 48 hours; for maximum fold (Fold) increase of Smn protein: SMA patient fibroblast cells, 7-point concentration data, fold increase relative to vehicle control (SMN HTRF); for EC1.5x (concentration giving 1.5-fold Smn protein increase): SMA Type 1 patient fibroblast cells (GM03813), 7-point concentration curve, SMN HTRF, concentration producing 1.5 times Smn protein vs DMSO vehicle control, read-out: EC1.5x for Smn protein expression
Method in brief: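 Lysates in RIPA with protease inhibitors are incubated overnight at room temperature with HTRF anti-SMN antibodies. EC1.5x is derived from fold increase in ΔF over vehicle.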

[1] = test system: SMN2 minigene (full length SMN2 minigene mRNA containing SMN2 exon 7); assay: SMN2 minigene mRNA splicing RT-qPCR assay in cultured cells; assay type: cell-based, human; conditions: Homo sapiens, HEK293-H, read-out: EC1.5x for production of full length SMN2 mRNA
Method in brief: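 Read-out: full-length (exon 7-included) SMN2 minigene mRNA by multiplex RT-qPCR with GAPDH, efficiency-corrected (1+E)^−Ct, GAPDH-normalized and divided by vehicle. Stably transfected HEK293H cells, 24 h compound exposure, duplicates per concentration. Value is EC1.5x, reported as star ranges.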

[2] = HEK293H cells stably transfected with SMN2-A minigene, 24 hours, 7-point concentration curve, 1.5-fold relative to vehicle-treated cells

SMILES: Cc1cc(Cl)c2nc(-c3cc4ccc(N5CCCN(C)CC5)cc4oc3=O)cn2c1 [Compound 344, 3-(8-chloro-6-methylimidazo[1,2-a]pyridin-2-yl)-7-(4-methyl-1,4-diazepan-1-yl)-2H-chromen-2-one]
- melting point: 224 to 230 °C
- maximum fold (Fold) increase of Smn protein (Smn protein): ** (fold increase between >1.2 and ≤1.35)
- EC (1.5-fold) [1, 2]: 0.3 to 1 µM

SMILES: Cc1ccn2cc(-c3cc4ccc(NC5CCNCC5)cc4oc3=O)nc2c1 [Compound 495, 3-(7-methylimidazo[1,2-a]pyridin-2-yl)-7-(piperidin-4-ylamino)-2H-chromen-2-one]
- melting point: 232 to 239 °C
- maximum fold (Fold) increase of Smn protein (Smn protein): * (maximum fold increase of ≤1.2)
- EC (1.5-fold) [1, 2]: 1 to 3 µM

SMILES: Cc1nn2cc(-c3cc4ccc(N5CCNCC5)cc4oc3=O)nc2s1 [Cpd 441, 3-(2-methylimidazo[2,1-b][1,3,4]thiadiazol-6-yl)-7-(piperazin-1-yl)-2H-chromen-2-one]
- melting point: 288 to 290 °C
- maximum fold (Fold) increase of Smn protein (Smn protein): *** (fold increase between >1.35 and ≤1.5)
- EC (1.5-fold) [1, 2]: < 0.1 µM

SMILES: CCN(CCO)CCOc1ccc2cc(-c3cn4cc(C)nc(C)c4n3)c(=O)oc2c1 [Compound 938, 3-(6,8-dimethylimidazo[1,2-a]pyrazin-2-yl)-7-{2-[ethyl(2-hydroxyethyl)amino]ethoxy}-2H-chromen-2-one]
- melting point: 165 to 168 °C
- EC1.5x (concentration giving 1.5-fold Smn protein increase) (Smn protein): < 300 nM
- maximum fold (Fold) increase of Smn protein (Smn protein): ***** (fold increase >1.65)
- EC (1.5-fold) [1, 2]: < 0.1 µM

SMILES: Cc1ccn2cc(-c3cc4ccc(N5CCCNCC5)cc4oc3=O)nc2n1 [Compound 230, 7-(1,4-diazepan-1-yl)-3-(7-methylimidazo[1,2-a]pyrimidin-2-yl)-2H-chromen-2-one]
- melting point: 286 to 288 °C
- maximum fold (Fold) increase of Smn protein (Smn protein): *** (fold increase between >1.35 and ≤1.5)
- EC (1.5-fold) [1, 2]: 0.3 to 1 µM

SMILES: Cc1cn2cc(-c3cc4ccc(C5CCN(C6COC6)CC5)cc4oc3=O)ccc2n1 [Compound 828, 3-(2-methylimidazo[1,2-a]pyridin-6-yl)-7-[1-(oxetan-3-yl)piperidin-4-yl]-2H-chromen-2-one]
- melting point: 198 to 200 °C
- EC1.5x (concentration giving 1.5-fold Smn protein increase) (Smn protein): 300 to 1000 nM
- maximum fold (Fold) increase of Smn protein (Smn protein): ***** (fold increase >1.65)
- EC (1.5-fold) [1, 2]: 0.1 to 0.3 µM

SMILES: Cc1ccn2cc(-c3cc4ccc(O[C@@H]5CCNC5)cc4oc3=O)nc2n1.Cl.Cl [Compound 322, 3-(7-methylimidazo [1,2-a]pyrimidin-2-yl)-7-[(3R)-pyrrolidin-3-yloxy]-2H-chromen-2-one hydrochloride (1:2)]
- melting point: 292 to 296 °C
- maximum fold (Fold) increase of Smn protein (Smn protein): ** (fold increase between >1.2 and ≤1.35)
- EC (1.5-fold) [1, 2]: 0.3 to 1 µM

SMILES: C[C@@H]1CN(c2cc(F)c3cc(-c4nc5ccccc5[nH]4)c(=O)oc3c2)C[C@H](C)N1 [Compound 371, 3-(1H-benzimidazol-2-yl)-7-[(3R,5S)-3,5-dimethylpiperazin-1-yl]-5-fluoro-2H-chromen-2-one]
- melting point: 288 to 294 °C
- maximum fold (Fold) increase of Smn protein (Smn protein): * (maximum fold increase of ≤1.2)
- EC (1.5-fold) [1, 2]: 0.3 to 1 µM

SMILES: CC(C)N1CCN(c2ccc3cc(-c4cc5ccccn5n4)c(=O)oc3c2)CC1 [Compound 196, 7-[4-(propan-2-yl)piperazin-1-yl]-3-(pyrazolo[1,5-a]pyridin-2-yl)-2H-chromen-2-one]
- melting point: 243 to 246 °C
- maximum fold (Fold) increase of Smn protein (Smn protein): * (maximum fold increase of ≤1.2)
- EC (1.5-fold) [1, 2]: 1 to 3 µM

SMILES: Cc1ccn2cc(-c3cc4ccc(N5CCNC6(CCC6)C5)cc4oc3=O)nc2c1 [Compound 595, 7-(5,8-diazaspiro[3.5]non-8-yl)-3-(7-methylimidazo[1,2-a]pyridin-2-yl)-2H-chromen-2-one]
- melting point: 226 to 233 °C
- maximum fold (Fold) increase of Smn protein (Smn protein): ** (fold increase between >1.2 and ≤1.35)
- EC (1.5-fold) [1, 2]: 0.3 to 1 µM

SMILES: Cc1cn2cc(-c3cc4ccc(N5CC[C@H](NC(C)C)C5)cc4oc3=O)cc2c(C)n1 [Compound 725, 3-(1,3-dimethylpyrrolo[1,2-a]pyrazin-7-yl)-7-[(3S)-3-(propan-2-ylamino)pyrrolidin-1-yl]-2H-chromen-2-one]
- melting point: 217 to 220 °C
- EC1.5x (concentration giving 1.5-fold Smn protein increase) (Smn protein): 300 to 1000 nM
- maximum fold (Fold) increase of Smn protein (Smn protein): *** (fold increase between >1.35 and ≤1.5)
- EC (1.5-fold) [1, 2]: < 0.1 µM

SMILES: Cc1cn2cc(-c3cc4ccc(N(C)[C@H]5CCN(C)C5)cc4oc3=O)nc2c(C)n1 [Compound 656, 3-(6,8-dimethylimidazo[1,2-a]pyrazin-2-yl)-7-{methyl[(3S)-1-methylpyrrolidin-3-yl]amino}-2H-chromen-2-one]
- melting point: 178 to 184 °C
- EC1.5x (concentration giving 1.5-fold Smn protein increase) (Smn protein): < 300 nM
- maximum fold (Fold) increase of Smn protein (Smn protein): ***** (fold increase >1.65)
- EC (1.5-fold) [1, 2]: < 0.1 µM

SMILES: Cc1ccn2cc(-c3cc4ccc(N5CCNC(C)(C)C5)cc4oc3=O)nc2c1 [Compound 215, 7-(3,3-dimethylpiperazin-1-yl)-3-(7-methylimidazo[1,2-a]pyridin-2-yl)-2H-chromen-2-one]
- melting point: 217 to 223 °C
- maximum fold (Fold) increase of Smn protein (Smn protein): * (maximum fold increase of ≤1.2)
- EC (1.5-fold) [1, 2]: 1 to 3 µM

SMILES: CCN(CC)CCc1ccc2cc(-c3cn4cc(C)nc(C)c4n3)c(=O)oc2c1 [Compound 968, 7-[2-(diethylamino)ethyl]-3-(6,8-dimethylimidazo[1,2-a]pyrazin-2-yl)-2H-chromen-2-one]
- melting point: 190 to 193 °C
- EC1.5x (concentration giving 1.5-fold Smn protein increase) (Smn protein): < 300 nM
- maximum fold (Fold) increase of Smn protein (Smn protein): ***** (fold increase >1.65)
- EC (1.5-fold) [1, 2]: < 0.1 µM

SMILES: O=c1oc2cc(N3CCNCC3)ccc2cc1-c1cc2ccccc2s1 [Compound 407, 3-(1-benzothiophen-2-yl)-7-(piperazin-1-yl)-2H-chromen-2-one]
- melting point: 243 to 245 °C
- maximum fold (Fold) increase of Smn protein (Smn protein): * (maximum fold increase of ≤1.2)
- EC (1.5-fold) [1, 2]: 0.3 to 1 µM

SMILES: O=c1oc2cc(N3CCNCC3)ccc2cc1-c1ccsc1 [Compound 319, 7-(piperazin-1-yl)-3-(thiophen-3-yl)-2H-chromen-2-one]
- melting point: 175 to 177 °C
- maximum fold (Fold) increase of Smn protein (Smn protein): ** (fold increase between >1.2 and ≤1.35)
- EC (1.5-fold) ([1]; 24 h): 1 to 3 µM

SMILES: Cc1cn2cc(-c3cc4ccc(N5CCC(N(C)C)C5)cc4oc3=O)nc2s1 (stereo not drawn) [Compound 154, 7-[3-(dimethylamino)pyrrolidin-1-yl]-3-(2-methylimidazo[2,1-b][1,3]thiazol-6-yl)-2H-chromen-2-one]
- melting point: 180 to 183 °C
- maximum fold (Fold) increase of Smn protein (Smn protein): * (maximum fold increase of ≤1.2)
- EC (1.5-fold) [1, 2]: 3 to 30 µM

SMILES: C[C@@H]1CN(c2ccc3cc(-c4cn5cc(C6CC6)cc(F)c5n4)c(=O)oc3c2)CCN1 [Compound 503, 3-(6-cyclopropyl-8-fluoroimidazo[1,2-a]pyridin-2-yl)-7-[(3R)-3-methylpiperazin-1-yl]-2H-chromen-2-one]
- melting point: 254 to 264 °C
- maximum fold (Fold) increase of Smn protein (Smn protein): * (maximum fold increase of ≤1.2)
- EC (1.5-fold) [1, 2]: 0.3 to 1 µM

SMILES: Cc1cn2cc(-c3cc4ccc(N[C@@H]5CCNC5)cc4oc3=O)nc2c(C)n1 [Compound 564, 3-(6,8-dimethylimidazo[1,2-a]pyrazin-2-yl)-7-[(3R)-pyrrolidin-3-ylamino]-2H-chromen-2-one]
- melting point: 290 to 300 °C
- EC1.5x (concentration giving 1.5-fold Smn protein increase) (Smn protein): < 300 nM
- maximum fold (Fold) increase of Smn protein (Smn protein): ***** (fold increase >1.65)
- EC (1.5-fold) [1, 2]: < 0.1 µM
